Drawing on patent US4205163A, “Tylosin derivatives” (Sanraku-Ocean Co., Ltd., priority 1977, dated 1980), this text covers MIC and Cmax for six molecules.

Values after ≈ are worked out from the molar mass of the structure shown. Read-outs that look alike come from different tables or passages of the source.

The test system of data set [1] is Bacillus cereus ATCC 9634. The data set is described as follows: antimicrobial activity, broth dilution method. The data set is classed as cell-based. The following applies: Bacillus cereus, ATCC9634, Bacillus cereus ATCC 9634; broth dilution; read-out: minimum inhibitory concentration (MIC). The essentials:
(§1)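 Broth dilution MICs were measured against pathogenic bacteria, including clinically isolated drug-resistant strains. Staphylococcus aureus MS-8710 is resistant to tylosin, penicillin, tetracycline, erythromycin and leucomycin, and Streptococcus pyogenes to tylosin, erythromycin, oleandomycin and leucomycin.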

For data set [2], the system named is Staphylococcus aureus SMITH. The data set is described as follows: antimicrobial activity, broth dilution method. In kind it is cell-based. The following applies: Staphylococcus aureus, Staphylococcus aureus SMITH; broth dilution; read-out: minimum inhibitory concentration (MIC). The essentials:
(§2)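 Activity was measured by broth dilution against each strain. S. aureus MS-8710 is a clinical isolate resistant to tylosin, penicillin, tetracycline, erythromycin and leucomycin. The S. pyogenes strain is a clinical isolate resistant to tylosin, erythromycin, oleandomycin and leucomycin.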
(Dilution methods test growth across graded concentrations, often in twofold steps.)

Another data set deals with Sarcina lutea ATCC 9341. Nature of the data set: antimicrobial activity, broth dilution method. The data set is classed as cell-based. To be noted: Micrococcus luteus, ATCC9341, Sarcina lutea ATCC 9341, read-out: minimum inhibitory concentration (MIC). In a few lines:
as §1

The test system of data set [3] is Staphylococcus aureus MS-9931. Nature of the data set: antimicrobial activity, broth dilution method. In kind it is cell-based. The following applies: MS9931; Staphylococcus aureus MS-9931, drug-resistant clinical isolate; read-out: minimum inhibitory concentration (MIC). In a few lines:
as §1

Data set [4] concerns Staphylococcus aureus FDA-209P. Nature of the data set: antimicrobial activity, broth dilution method. In kind it is cell-based. To be noted: Staphylococcus aureus, FDA209P, Staphylococcus aureus FDA-209P; broth dilution; read-out: minimum inhibitory concentration (MIC). In a few lines: as §2
In data set [5] the test system is Staphylococcus aureus MS-9937. Nature of the data set: antimicrobial activity, broth dilution method. To be noted: MS9937; Staphylococcus aureus MS-9937, drug-resistant clinical isolate; read-out: minimum inhibitory concentration (MIC). The data set is classed as cell-based. In a few lines:
as §1

In data set [6] the test system is Staphylococcus aureus MS-8710. The data set is described as follows: antimicrobial activity, broth dilution method. In kind it is cell-based. The following applies: Staphylococcus aureus, MS8710, Staphylococcus aureus MS-8710, drug-resistant clinical isolate; read-out: minimum inhibitory concentration (MIC). In a few lines: as §1
For data set [7], the system named is Streptococcus pyogenes MH-771. Nature of the data set: antimicrobial activity, broth dilution method. In kind it is cell-based. To be noted: Streptococcus pyogenes, MH771, Streptococcus pyogenes MH-771, drug-resistant clinical isolate; read-out: minimum inhibitory concentration (MIC). The essentials: as §1
The nature of the next data set: in vivo. To be noted: mouse, po, 100 mg/kg.
Data set [8] deals with Mycoplasma gallisepticum E-11. The data set is described as follows: antibacterial activity against Mycoplasma. In kind it is cell-based. To be noted: Mycoplasmoides gallisepticum, E11; strain E-11, macrolide resistant; Eiken PPLO Medium; read-out: MIC. The text has this: (§3) Furthermore the new antibiotics according to the present invention also show antimicrobial activity on Mycoplasma. In particular, it is noteworthy that they have much higher antimicrobial activity than tylosin on Mycoplasma that is resistant to macrolide antibiotics. Tab.
(§4) *Macrolide resistant strain
(§5) **Medium (Eiken PPLO Medium)

The subject of data set [9] is Mycoplasma gallisepticum A-72. Nature of the data set: antibacterial activity against Mycoplasma. In kind it is cell-based. To be noted: Mycoplasmoides gallisepticum, A72; strain A-72, macrolide resistant; Eiken PPLO Medium.
Text: as §3, §4, §5

Data set [10] deals with Mycoplasma gallisepticum E-5. The data set is described as follows: antibacterial activity against Mycoplasma. In kind it is cell-based. The following applies: Mycoplasmoides gallisepticum, E5.
Text: as §3, §4, §5

In data set [11] the test system is Mycoplasma gallisepticum KP-13. The data set is described as follows: antibacterial activity against Mycoplasma. In kind it is cell-based. To be noted: Mycoplasmoides gallisepticum, KP13.
Text: as §3, §5

[12] abbreviates: strain KP-13, Eiken PPLO Medium, read-out: MIC.
[13] abbreviates: strain E-5, macrolide resistant, Eiken PPLO Medium, read-out: MIC.

Description for in vivo: The new antibiotics according to the present invention were each orally administered to mice at a dose of 100 mg/kg. Each blood level was then measured and compared with those of tylosin and 3-acetyltylosin.

On to `CCC1OC(=O)CC(OC(C)=O)C(C)C(OC2OC(C)C(OC3CC(C)(O)C(O)C(C)O3)C(N(C)C)C2O)C(CC=O)CC(C)C(=O)C=CC(C)=CC1COC1OC(C)C(O)C(OC)C1OC` (stereo not shown) [3-acetyltylosin, reference compound], for which the MIC is 0.78 µg/mL (≈ 0.814 µM) in data set [1]; 0.39 µg/mL (≈ 0.407 µM) in [2]; 0.19 µg/mL (≈ 0.198 µM) with Sarcina lutea ATCC 9341; 200 µg/mL (≈ 209 µM) in data set [3]; 0.39 µg/mL (≈ 0.407 µM) in [4]; 100 µg/mL (≈ 104 µM) in data set [5]. For the same molecule, the MIC in data set [6] and in [7] was 200 µg/mL (≈ 209 µM) in each case. In “in vivo”, the Cmax (as a rule, the peak of the concentration-time curve) was in the range of 2000 to 5000 ng/mL.

Take `CCC1OC(=O)CC(O)C(C)C(OC2OC(C)C(OC3CC(C)(O)C(OC(=O)CCC4CCCCC4)C(C)O3)C(N(C)C)C2O)C(CC=O)CC(C)C(=O)C=CC(C)=CC1COC1OC(C)C(O)C(OC)C1OC` (stereo not drawn) [Compound 29, 4"-β-cyclohexylpropionyl tylosin]: the MIC turned out to be 0.625 µg/mL (≈ 0.593 µM) in [8]; 0.313 µg/mL (≈ 0.297 µM) in [9]; 0.313 µg/mL (≈ 0.297 µM) in [10]; 0.039 µg/mL (≈ 0.037 µM) in [11] (setting [12]); 0.78 µg/mL (≈ 0.74 µM) in data set [1]; 0.78 µg/mL (≈ 0.74 µM) in data set [2]. Further, the MIC in the data set on Sarcina lutea ATCC 9341 was 0.39 µg/mL (≈ 0.37 µM); in data set [3], 12.5 µg/mL (≈ 11.9 µM); in [4], 0.78 µg/mL (≈ 0.74 µM); in data set [5], 12.5 µg/mL (≈ 11.9 µM); in [6], 12.5 µg/mL (≈ 11.9 µM); in data set [7], 6.25 µg/mL (≈ 5.93 µM).

Take `CCC1OC(=O)CC(OC(C)=O)C(C)C(OC2OC(C)C(OC3CC(C)(O)C(OC(=O)CN(C(C)=O)c4ccccc4)C(C)O3)C(N(C)C)C2O)C(CC=O)CC(C)C(=O)C=CC(C)=CC1COC1OC(C)C(O)C(OC)C1OC` (stereo not shown) [Compound 32, 3-acetyl-4"-(N-acetylanilino)acetyltylosin]: the MIC in data set [8] was 0.313 µg/mL (≈ 0.276 µM); in [9], 0.157 µg/mL (≈ 0.139 µM); in data set [10] (setting [13]) it was 0.313 µg/mL (≈ 0.276 µM); in data set [11] it was 0.157 µg/mL (≈ 0.139 µM); in data set [1], 0.78 µg/mL (≈ 0.688 µM); in data set [2], 0.78 µg/mL (≈ 0.688 µM). The MIC amounted to 0.39 µg/mL (≈ 0.344 µM) in the data set on Sarcina lutea ATCC 9341; 25 µg/mL (≈ 22.1 µM) in [3]; 0.78 µg/mL (≈ 0.688 µM) in data set [4]; 25 µg/mL (≈ 22.1 µM) in data set [5]; 12.5 µg/mL (≈ 11 µM) in [6]; 12.5 µg/mL (≈ 11 µM) in [7].

Take `CCC1OC(=O)CC(O)C(C)C(OC2OC(C)C(OC3CC(C)(O)C(OC(=O)CSc4ccc(Cl)cc4)C(C)O3)C(N(C)C)C2O)C(CC=O)CC(C)C(=O)C=CC(C)=CC1COC1OC(C)C(O)C(OC)C1OC` (stereo not shown) [Compound 37, 4"-(4-chlorophenyl)thioacetyltylosin]: the MIC in [1] was found to be 0.78 µg/mL (≈ 0.709 µM); in [2] it was 0.39 µg/mL (≈ 0.354 µM); in the data set with Sarcina lutea ATCC 9341, 0.19 µg/mL (≈ 0.173 µM); in data set [3] it was 6.25 µg/mL (≈ 5.68 µM); in data set [4] it was 0.39 µg/mL (≈ 0.354 µM); in data set [5] it was 6.25 µg/mL (≈ 5.68 µM). The MIC stood at 12.5 µg/mL (≈ 11.4 µM) in data set [6] and 3.13 µg/mL (≈ 2.84 µM) in data set [7].

With `CCC1OC(=O)CC(OC(C)=O)C(C)C(OC2OC(C)C(OC3CC(C)(O)C(OC(=O)CSCc4ccccc4)C(C)O3)C(N(C)C)C2O)C(CC=O)CC(C)C(=O)C=CC(C)=CC1COC1OC(C)C(O)C(OC)C1OC` (stereo not shown) [Compound 38, 3-acetyl-4"-benzylthioacetyltylosin], the MIC in data set [8] turned out to be 0.078 µg/mL (≈ 0.0695 µM); in [9], 0.078 µg/mL (≈ 0.0695 µM); in data set [10] (setting [13]), 0.078 µg/mL (≈ 0.0695 µM); in data set [11] (setting [12]), 0.019 µg/mL (≈ 0.0169 µM); in data set [1] it was 1.56 µg/mL (≈ 1.39 µM); in [2], 0.78 µg/mL (≈ 0.695 µM). Also, the MIC worked out at 0.39 µg/mL (≈ 0.347 µM) in the data set on Sarcina lutea ATCC 9341; 12.5 µg/mL (≈ 11.1 µM) in data set [3]; 0.78 µg/mL (≈ 0.695 µM) in data set [4]; 12.5 µg/mL (≈ 11.1 µM) in data set [5]; 12.5 µg/mL (≈ 11.1 µM) in [6]; 6.25 µg/mL (≈ 5.57 µM) in [7].

As for `CCC1OC(=O)CC(O)C(C)C(OC2OC(C)C(OC3CC(C)(O)C(OC(=O)CCSc4ccccc4)C(C)O3)C(N(C)C)C2O)C(CC=O)CC(C)C(=O)C=CC(C)=CC1COC1OC(C)C(O)C(OC)C1OC` (stereo not drawn) [Compound 39, 4"-β-phenylthiopropionyltylosin], the MIC is 0.39 µg/mL (≈ 0.361 µM) in data set [1]; 0.39 µg/mL (≈ 0.361 µM) in [2]; 0.19 µg/mL (≈ 0.176 µM) in the data set with Sarcina lutea ATCC 9341; 12.5 µg/mL (≈ 11.6 µM) in [3]; 0.78 µg/mL (≈ 0.722 µM) in [4]; 12.5 µg/mL (≈ 11.6 µM) in data set [5]. The MIC is 12.5 µg/mL (≈ 11.6 µM) in data set [6] and 6.25 µg/mL (≈ 5.79 µM) in data set [7].
